Assay [1] concerns HCT-116 p21^+/+ (wt) cells. Put plainly: Growth inhibition (cell viability assay) of HCT-116 p21+/+ cells. The note with it: Homo sapiens, HCT-116, 48 h, read-out: GI50 (nM) 48 h p21^+/+. Here is the method: (§1) Cell viability assay. Cells were plated into 96-well plates in 75 μL of media. After 24 h, a time-zero plate was produced by adding 25 μL of media and 20 μL of CellTiter-Blue® (Promega) to the wells, followed by incubation at 37° C. for 90 min. Fluorescence (544 nm excitation; 590 nm emission) was detected using a SPECTRAmax® Gemini XS to establish cell viability at time of dosing. Then, compounds were serially diluted in media and delivered to the cells as 4× solutions in 25 μL of media. At either 48 h or 72 h, CellTiter-Blue® was added and the fluorescence was recorded as described above.
(§2) Tasdemir et al. (2002) J Nat Prod 65:210-4. GI50-values of the compounds were determined in HCT-116 p21^+/+ (wt) and p21^−/− cells after 48 h using a resazurin redox dye to measure cell viability.
(§3) Methods are described above in the General Methods section.

Another assay concerns HCT-116 p21^−/− cells. Briefly: cells. To be noted: Homo sapiens, HCT-116, 48 h, read-out: GI50 (nM) 48 h p21^−/−. How it is done: as §1, §2, §3

For `C=CCOC(=O)NCc1ccc(CNC(=O)O[C@H]2CC[C@@]3(C)C(=CC[C@@H]4C3CC[C@@]3(C)[C@H]4C[C@H](OC4OCC(O)C(OC5OCC(O)C(O)C5O)C4O)[C@]3(O)[C@H](C)C(=O)CCC(C)C)C2)cc1` (stereo partly shown) [Compound 20], the values for the GI50 (in assay [1]; in the assay with HCT-116 p21^−/− cells) were 6500 ± 3600 nM and 550 ± 300 nM, respectively.

For `COc1ccc(C(=O)OC2C(OC3C(O)COC(O[C@H]4C[C@H]5[C@@H]6CC=C7C[C@@H](OC(=O)NCCCCCCNC(=O)OCC8c9ccccc9-c9ccccc98)CC[C@]7(C)C6CC[C@]5(C)[C@@]4(O)[C@H](C)C(=O)CCC(C)C)C3OC(C)=O)OCC(O)C2O)cc1` (stereo partly shown) [Compound 102], the GI50 in assay [1] is 85 nM; in the assay with HCT-116 p21^−/− cells, 97 nM.

Turning to `C=CCOC(=O)NCCCCCCNC(=O)O[C@H]1CC[C@@]2(C)C(=CC[C@@H]3C2CC[C@@]2(C)[C@H]3C[C@H](OC3OCC(O)C(OC4OCC(O)C(O)C4OC(=O)c4ccc(OC)cc4)C3OC(C)=O)[C@]2(O)[C@H](C)C(=O)CCC(C)C)C1` (stereo partly shown) [Compound 103], the figures for the GI50 (in assay [1]; in the assay on HCT-116 p21^−/− cells) were 172 ± 2 nM and 138 ± 16 nM, respectively.

For `C=CCOC(=O)NCCCCCCNC(=O)O[C@H]1CC[C@@]2(C)C(=CC[C@@H]3C2CC[C@@]2(C)[C@H]3C[C@H](OC3OCC(O)C(OC4OCC(O)C(O)C4O)C3O)[C@]2(O)[C@H](C)C(=O)CCC(C)C)C1` (stereo partly shown) [Compound 104], the values for the GI50 (in assay [1]; with HCT-116 p21^−/− cells) were over 2700 nM and 525 ± 4 nM, respectively.

On to `C=CCOC(=O)NCc1ccc(CNC(=O)O[C@H]2CC[C@@]3(C)C(=CC[C@@H]4C3CC[C@@]3(C)[C@H]4C[C@H](OC4OCC(O)C(OC5OCC(O)C(O)C5OC(=O)c5ccc(OC)cc5)C4OC(C)=O)[C@]3(O)[C@H](C)C(=O)CCC(C)C)C2)cc1` (stereo partly shown) [Compound 106], for which the GI50 in assay [1] stood at 91 ± 10 nM; in the assay with HCT-116 p21^−/− cells it was 5 ± 3 nM.

Source of the values: US9790253B2, “OSW-1 analogs and conjugates, and uses thereof” (priority 2011, dated 2017).
